Experimental data from US20200163857A1, “Dual Component Compositions for Teeth Whitening” (Colgate-Palmolive Company, priority 2018, published 2020).

How the values were obtained:
[1] = system: bacterial viability of stimulated saliva samples; assay: Salivary ATP bacteria viability assay (luciferase); type: cell-based; conditions: one-minute treatment; for Log10 of Viability, Mean: average of two experiments
Description: In order to screen for preliminary antibacterial efficacy, a NaDCC solution was subjected to an ATP-bacteria viability test. This method determines the number of viable bacterial cells in culture based on the quantification of adenosine triphosphate (ATP) present. ATP is a product of the catabolism of glucose (glycolysis) and aerobic respiration. This essential nucleoside triphosphate powers virtually all cell functions and is used by bacteria during cell division, the synthesis of nucleic acids and proteins, the transport of macromolecules, cell signaling, and bacterial motility. Given its importance, ATP signals the presence of metabolically active cells, and therefore it may be used to quantify cell viability.
In a reaction, luciferin is converted to oxiluciferin by the luciferase enzyme in the presence of ATP and oxygen. A direct relationship exists between the light output of the reaction and the number of metabolically active cells that makes this method ideal for the rapid screening of antimicrobial agents during the development of oral care formulas to establish their potential antibacterial efficacy. A salivary ATP assay was used to evaluate the antibacterial efficacy of NaDCC-containing tablets on bacterial viability of stimulated saliva samples.
In this assay, a mouthwash solution containing 0.075% cetylpyridinium chloride (CPC), a known antibacterial agent, was used as a positive control. An NaDCC tablet containing only NaDCC and weighing 20 mg was disintegrated in two phosphate buffered saline (PBS) solutions to yield both a 500 ppm NaDCC solution and a 1000 ppm NaDCC solution. […] Lower viability translates into higher antibacterial properties. The data below in Table 4 was calculated using the Tukey Method with a 95% Confidence Interval for the mean.

[2] = pH-dependent bleaching of Lissamine green B by NaDCC
Protocol: Two different solutions, Solution A and Solution B, were prepared. Solution A contained 2% SAPP, 0.1% Lissamine green B dye, and 97.9% water. Solution B contained 2% tetrasodium pyrophosphate (TSPP), 0.1% Lissamine green B dye, and 97.9% water. Next, solutions with various pHs were obtained by mixing the two different solutions A and B, in different volume ratios (i.e., 1:0, 1:5, 1:1, 5:1, and 0:1). 20 mL of the resulting solutions were added to 10 mg NaDCC, and the time required to bleach away all of the Lissamine green B color was recorded.

Row | Structure (SMILES) | Log10 of Viability, Mean ([1]; 0.075% CPC mouthwash solution (positive control)) | Log10 of Viability, Mean ([1]; 500 ppm NaDCC in PBS) | Log10 of Viability, Mean ([1]; 1000 ppm NaDCC in PBS) | antibacterial properties compared to the 0.075% CPC solution ([1]; NaDCC solutions at both 500 ppm and 1000 ppm in PBS) | Time to bleach ([2]; 10 mg NaDCC in 20 mL Mix Solution 1, VA:VB 1:0, pH 4.6) | Time to bleach ([2]; 10 mg NaDCC in 20 mL Mix Solution 2, VA:VB 1:5, pH 5.8) | Time to bleach ([2]; 10 mg NaDCC in 20 mL Mix Solution 3, VA:VB 1:1, pH 7.4) | Time to bleach ([2]; 10 mg NaDCC in 20 mL Mix Solution 4, VA:VB 5:1, pH 8.8) | Time to bleach ([2]; 10 mg NaDCC in 20 mL Mix Solution 5, VA:VB 0:1, pH 10.5)
1 | CCCCCCCCCCCCCCCC[n+]1ccccc1 [CPC, cetylpyridinium chloride, reference compound] | 5.061 ± 0.032 | – | – | – | – | – | – | – | –
2 | O=c1nc(O)n(Cl)c(=O)n1Cl [NaDCC, sodium dichloroisocyanurate] | – | 4.139 ± 0.001 | 3.530 ± 0.048 | statistically significant improvement | Instantaneous | 0.25 min | 8 min | 35 min | 80 min
